One assay has as its system TS cells. The experiment in a line: Orthotopically implanted GFP-expressing TS cells in lungs of NSG mice. Type of assay: in vivo. The note with it: orthotopic TS cells, transient treatment for 3 days, 5 weeks post implantation. An excerpt: GFP expressing 1.5×10^6 single TS cells (transduced with PLL3.7 vector) with suspended in tumor sphere media and injected intravenously through tail-vein into 4-6 week old male and female NOD.Cg-Prkdc^scid Il2rg^tm1wjl SWJ (Jackson Laboratories) mice. Mice were continuously monitored and then sacrificed at 5 weeks post injection. Lungs were harvested, fixed in 4% paraformaldehyde and embedded in paraffin for subsequent analysis. Anti-GFP (ab13970) antibody from Abcam and Alexa-Fluor Goat 488 anti-Chicken antibody (A-11039; ThermoFisher) was used to visualize and quantify GFP-positive lesions using immunofluorescence protocol outlined above. Mice were randomized by sex.
Since FIDAS5 appeared to more specifically disrupt the methionine cycle and inhibit cellular methylation activities compared to D9, it was sought to test whether its systemic delivery could impact the tumorigenic potential of TS cells. These highly tumorigenic cells were first subcutaneously implanted into NSG mice and FIDAS5 (40 mg/kg) or corn oil carrier was immediately administered via intraperitoneal injection for three consecutive days. After 6 weeks, mice transiently treated with FIDAS5 produced tumors that were much smaller than carrier-treated controls. […]

Assay [1] concerns histone methylation in Adh cells. The experiment in a line: Western blot of methylated histones in Adh cells. It counts as cell-based, human. The note with it: FIDAS5 treatment. As to the method: 1.5×10^6 cells were lysed in Llaemli-SDS buffer and then sonicated. Total protein concentration was measured by Bradford assay. Total cell lysates were separated by SDS-PAGE and transferred onto nitrocellulose, followed by blocking in 5% (v/v) milk in Tris-buffered saline in Tween 20, probing with the indicated antibodies and visualized by chemiluminescence (Roche). Primary antibodies used were anti-β-Actin (sc-47778), anti-GAPDH (sc-32233) from Santa Cruz: anti-GLDC (ab97625), anti-H3 (ab1791), anti-H3 (dimethylK36) (ab9049), anti-MAT2A (ab77471), anti-MTR (ab9209), anti-H3 (trimethylK79) (ab2621), anti-MTHFR (ab125707), anti-MTAP (ab ab55517) from Abcam; anti-H3(trimethyl K4) (39159), anti-H3(trimethyl K27)(39155), anti-H3(trimethylK36)(61101) and anti-H3(trimethylK9)(39765) from Active Motif; anti-β-catenin (BD610154) from BD Biosciences; anti-SHMT2 (HPA020549) and anti-SAHH (WH0000191M8) from Sigma; anti-Symmetric Di-Methyl Arginine Motif (13222) from CST.

Another assay deals with TS cells (lung TICs). Kind of assay: Soft agar colony formation of pre-treated TS cells. Type of assay: cell-based, human. Conditions: TS cells treated 48 h with inhibitor prior to soft agar assay. As to the method: 2.5 ml lower layer of 0.7% agar in complete DMEM/F12 with 10% fetal bovine serum was placed in 3 wells of a 6 well dish, and permitted to solidify. 2×10^4 Cells (for 3 wells) were then suspended in a 2 ml layer of 0.35% agar in complete DMEM/F12 with 10% fetal bovine serum and layered on top of the bottom layer. Colonies were stained with crystal violet and counted after approximately 2 months.
To evaluate the methionine cycle as a therapeutic target in lung TICs, small molecule inhibitors that target enzymes within this pathway were employed, mimicking the effects of short-term methionine starvation (FIG. 5a). two inhibitors known to perturb methionine cycle activity and cellular methylation levels: 1) MAT2A inhibitor, FIDAS5; and 2) SAHH inhibitor, D9, which is an analog of DZNep. In a manner similar to amino acid starvation studies, TS cells were exposed transiently to the compounds for 48 h in culture and were immediately used for downstream tumorigenesis assays.

As for `CNc1ccc(/C=C/c2c(F)cccc2Cl)cc1` [FIDAS5], in the assay with TS cells, the “number of pulmonary lesions” value is recorded as “decreased number of pulmonary lesions”. Further, in assay [1], the histone methylation marks result is listed as “did not demonstrate reduction in histone methylation marks”. Moreover, in the assay on TS cells (lung TICs), the colony-forming ability result is on record as “severely diminished”.

(Values after patent publication US11872230B2, “Method of treating a methionine-dependent cancer” (Agency for Science, Technology and Research, priority 2018, dated 2024).)
